Patent US6426317B1, “Stable, high available halogen 1,3,5-triazine-2,4,6-trione compositions having rapid dissolution rates” (Great Lakes Chemical Corporation, priority 1999, dated 2002)

Legend:
[1] = in water at 20° C.; cited from earlier work
[2] = NFPA scale from 1 to 4, NFPA 430, 1995 edition; cited from earlier work
[3] = Solubility (15-minute dissolution) of granules in balanced swimming pool water, thiosulfate titration; settings: Table 9; Example 6
[4] = for effect of additive on off-gassing of trichloroisocyanuric acid: Example 1, 25.5% additive
[5] = Off-gassing of roll-compacted granules contaminated with water (Examples 4-6); type: physicochemical; settings: Table 9; Example 6
[6] = Total chlorine in synthetic pool water exposed to environmental UV light (Example 7); type: physicochemical; design: unit not given here
[7] = Off-gassing of granular formula compositions (Example 3); type: physicochemical; settings: Example 3, granules
Experimental: The formula compositions produced in this example were tested for their stability and in some cases for their solubility. The components used included a dissolution aid: disodium cyanurate, and a disintegration agent: microcrystalline cellulose, Lattice® NT (FMC).
Again, blended powder samples were prepared for each formula composition. A 20-gram sample of each test formula composition was placed in a 2.0 inch diameter dye-punch set and compressed under 22 tons of force for 60 minutes using a Carver press. The compressed wafer was reduced to granules using a spatula and a mortar and pestle set. Properly sized granules were collected using a standard sieve shaker.
Approximately one gram of each granular formula composition sample was placed in an eight-ounce sample container. […] The containers were vapor sealed and carefully placed in an approximately 50° C. oven for 24 hours. After the sample set was removed from the oven and cooled, a one-ml aliquot from each sample was placed in 50 ml of deionized water and titrated with 0.100 N sodium thiosulfate. The volume of thiosulfate reagent used to titrate the available halogen in the KI solution was recorded.

SMILES: O=c1nc([O-])n(Cl)c(=O)n1Cl.[Na+] [Sodium dichloroisocyanurate anhydrous, sodium dichloroisocyanurate]
- Solubility [1]: 12.5^4 g/100g (%)
- Oxidizer Rating [2]: 3

SMILES: O=c1[n-]c(=O)n(Cl)c(=O)n1Cl.[K+] [Potassium dichloroisocyanurate anhydrous, potassium dichloroisocyanurate]
- Solubility [1]: 5.0^4 g/100g (%)
- Oxidizer Rating [2]: 3

SMILES: [Li+].[O-]Cl [Lithium hypochlorite]
- Solubility [1]: ≅43^3 g/100g (%)
- Oxidizer Rating [2]: 2

SMILES: O=c1n(Cl)c(=O)n(Cl)c(=O)n1Cl [Trichloroisocyanuric acid, 1,3,5-trichloro-1,3,5-triazine-2,4,6-trione]
- Solubility Titrant Volume [3]: 1.90 mL
- Titrant Volume (off-gassing) ([4]; Table 1, compressed powder wafer, 5 ml 15% KI, approximately 50° C., 24 hours, 0.100 N sodium thiosulfate): 2.65 mL
- Off-Gassing Titrant Volume [5]: 2.00 mL
- Solubility [1]: 1.2^4 g/100g (%)
- Oxidizer Rating [2]: 1

SMILES: O=C([O-])O.[Na+] [sodium bicarbonate]
- effect of additive on off-gassing of trichloroisocyanuric acid [4]: increase gassing significantly

SMILES: [Ca+2].[O-]Cl.[O-]Cl [Calcium hypochlorite, calcium hypochlorite]
- Total Cl ([6]; sampling time 0:00 (Hr:Min), 10 ppm available halogen added, outdoor UV light): 0.02
- Total Cl ([6]; sampling time 0:05): 6.8
- Total Cl ([6]; sampling time 0:10): 6.8
- Total Cl ([6]; sampling time 0:15): 7.2
- Total Cl ([6]; sampling time 0:20): 6.8
- Total Cl ([6]; sampling time 0:25): 6.0
- Total Cl ([6]; sampling time 0:30): 5.1
- Total Cl ([6]; sampling time 0:40): 5.0
- Total Cl ([6]; sampling time 0:50): 3.3
- Total Cl ([6]; sampling time 1:00): 3.5
- Total Cl ([6]; sampling time 1:15): 2.2
- Total Cl ([6]; sampling time 1:30): 2.6
- Solubility [1]: ≅22^3 g/100g (%)
- Oxidizer Rating [2]: 3

SMILES: OB(O)O [boric acid]
- effect of additive on off-gassing of trichloroisocyanuric acid [4]: do not significantly affect the off-gassing profile of trichloroisocyanuric acid

SMILES: O=c1nc([O-])nc([O-])[nH]1.[Na+].[Na+] [disodium cyanurate, disodium salt of 1,3,5-triazine-2,4,6-trione]
- effect of additive on off-gassing [7]: do not significantly affect the off-gassing profile
